The record followed here is patent publication US20090149417A1, “Methods and compositions for the treatment of cancer using benzopyrone-type PARP inhibitors” (priority 2007, published 2009).

The test system of data set [1] is eight pancreatic cancer cells. As to the kind of experiment: BrdU-ELISA proliferation assay, IIIg alone and with oxaliplatin. Type of data set: cell-based, human. As for the experimental part: The effect of IIIg alone and in combination with oxaliplatin on the proliferation of eight pancreatic cancer cells is determined using a BrdU-ELISA assay.
Assessment of synergy is performed according to the method described by Chou and Talalay.
(In general: An ELISA detects its analyte on a solid surface through an enzyme-linked reagent.)

For data set [2], the system named is human MX-1 breast carcinoma. As to the kind of experiment: Human MX-1 breast carcinoma xenograft model in nude mice. It counts as in vivo. The protocol: Female athymic nude mice (nu/nu, Harlan) are 10 weeks old, and have a body weight (BW) range of 18.1-27.0 g on D1 of the study. The animals are fed ad libitu water (reverse osmosis, 1 ppm Cl) and NIH 31 Modified and Irradiated Lab Diet® consisting of 18.0% crude protein, 5.0% crude fat, and 5.0% crude fiber. The mice are housed on irradiated ALPHA-dri® bed-o-cobs® Laboratory Animal Bedding in static microisolators on a 12-hour light cycle at 21-22° C. (70-72° F.) and 40-60% humidity. PRC specifically complies with the recommendations of the Guide for Care and Use of Laboratory Animals with respect to restraint, husbandry, surgical procedures, feed and fluid regulation, and veterinary care. […]
The human MX-1 breast carcinoma utilized in the present study is maintained in nude mice by serial engraftment. […] Tumors are monitored twice weekly and then daily as their volumes approached 80-120 mm^3. […] Tumor size, in mm3, is calculated from: […]
Tumors are calipered twice weekly for the duration of the study. […] The time to endpoint (TTE) for each mouse is calculated according to the following equation: […]
where TTE is expressed in days, endpoint volume is in mm3, b is the intercept, and m is the slope of the line obtained by linear regression of a log-transformed tumor growth data set. […] The calculated TTE is usually less than the day on which an animal is euthanized for tumor size. […]
Background: In xenograft studies the graft and the host belong to different species.

Each structure is given as a SMILES string.

Broadly, the IC50 is the concentration that inhibits the measured activity by half. Turning to `O=c1ccc2c(I)c([N+](=O)[O-])ccc2o1` [IIIg, 5-iodo-6-nitro-benzopyrone], in data set [1] (Homo sapiens, Pancreatic cancer cell, IIIg alone, range over eight PC cell lines, read-out: IC50 (growth of eight PC cell lines)), the IC50 lay in the range of 5 to 10 µM. In addition, the “Potentiation of oxaliplatin cytotoxicity” value in data set [1] (different pancreatic cancer cell models) is reported as “potentiates oxaliplatin cytotoxicity”. Moreover, the “Survival of tumor-bearing animals” value in data set [2] (biweekly intraperitoneal injection, 100 mg/kg) is given as “prolongs survival”. In addition, the Tumor growth entry in data set [2] (once-daily or twice-weekly administration) is “inhibits tumor growth”.
